From patent publication US10406383B2, “Apparatus for treatment of dermatological conditions” (CAREWEAR CORP., priority 2004, dated 2019)
Marks after values point to notes of the source that are not given here.

Legend:
[1] = system: fibrillin-rich microfibrils proximal to the dermal-epidermal junction (DEJ); test: Seven-day patch test, fibrillin-1 immunohistochemistry; type: in vivo, human; conditions: patch test under occlusion
Excerpt: (§1) The standard four-day patch test assay was extended to a seven-day period to examine the effect of the Topical 1 formulation under occlusion or delivered by ultrasound on the induction of fibrillin expression as a mechanism by which clinical signs of photoageing may be improved.
Fibrillin is a major constituent of the elastin network in the papillary dermis and plays an important role in securing the epidermis to the underlying dermis. Topical application of all-trans retinoic acid (t-RA) as a positive control ameliorates the clinical signs of photoageing.
(§2) Six healthy but photoaged female volunteers were recruited (age range 52-79 years). […]
(§3) A number of extracellular matrix (ECM) molecules known to be reduced in photoaged skin were assayed by immunohistochemistry to detail the potential effects of the Topical 1 formulation and its method of delivery. […] Also assessed were the number of epidermal keratinocytes expressing MMP-1 and RARα. […]
Sections were randomised, blinded and examined on a Nikon OPTIPHOT microscope (Tokyo, Japan). For assessment of ECM components, the degree of immunostaining was assessed on a 5 point semi-quantitative scale where 0=no staining and 4=maximal staining. […] The degree of immunostaining was scored for three high power fields per section, and the average score calculated for each site/test area. […]

[2] = system: MMP-1 expression in epidermal keratinocytes; test: Seven-day patch test, MMP-1 immunohistochemistry; type: in vivo, human; conditions: patch test under occlusion
Excerpt: as §1
(§4) Ageing can also be monitored by examination of other molecules within the skin. Previous work has identified alterations in the expression of the enzyme matrix metalloproteinase 1 (MMP-1; essential for extracellular matrix remodelling)^3 and in the nuclear retinoid receptor retinoic acid receptor α (RARα; necessary for modulating the effects of vitamin A and its derivatives)^4. Two molecular chaperones were assessed to identify pathways for eliminating abnormal proteins; these were heat shock protein-72 (HSP72)^5 and the extracellular chaperone, clusterin^6.
as §2, §3
(§5) For cell-associated staining, the numbers of positive epidermal keratinocytes were assessed per high powered field, and the average score calculated for each site/test area. […]

[3] = system: RARα expression in epidermal keratinocytes; test: Seven-day patch test, RARα immunohistochemistry; type: in vivo, human; conditions: patch test under occlusion
Excerpt: as §1, §4, §2, §3, §5

[4] = system: HSP72 expression in the epidermis; test: Seven-day patch test, HSP72 immunohistochemistry; type: in vivo, human; conditions: patch test under occlusion
Excerpt: as §1, §4, §2, §3, §5

[5] = Erythema and skin tolerability observations during the trial; type: in vivo, human; conditions: patch test protocol
Description: Six healthy but photoaged female volunteers were recruited (age range 52-79 years). Test substances were applied separately under standard 6 mm diameter Finn chambers to the extensor aspect of the forearm: these were Topical 1 formulation (20 μl/chamber), vehicle base (20 μl/chamber) and 0.025% all-trans RA (Retin-A® cream, Janssen-Cilag Ltd., 20 μl/chamber). In addition, a baseline untreated biopsy was taken as a reference point. Formulations were applied to clean skin on days 1 and 4 of the assay. All-trans RA was applied to an untreated site on day 4. On day 8, Finn chambers were removed and 3 mm punch biopsies were obtained under 1% lignocaine anaesthesia from each of the test site. Biopsies were embedded in OCT compound (Tissue-Tek®, Miles, Ind., USA) and snap frozen in liquid nitrogen. Biopsy sites were sutured with 1×4/o ethilon and subjects instructed to return between 7-10 days for suture removal.
Ten healthy but photoaged volunteers were recruited (men: 2; female: 8; age range 40-79 years). Topical 1 formulation was applied to extensor forearms alone and with the aid of an ultrasound device (Duo Son™ unit, Orthosonics, Devon UK). Low frequency (45 kHz, 100 mW/cm^2, continuous) and high frequency (1 MHz, 1 W/cm^2 pulsed average, pulsed 20% cycle) were applied simultaneously for a period of ten minutes, during which time the ultrasound delivery head was moved over the skin. […]

HSP70 mRNA = conditions: rats, aspirin 100 mg/kg intraperitoneally 60 min before 37° C. for 30 min; cited from earlier work
[6] = positive epidermal keratinocytes per high powered field

Row | SMILES | Fibrillin-1 staining Mean ([1]; photoaged forearm, biopsy day 8, 5 point scale 0=no staining, 4=maximal staining, p > 0.05) | volunteers with fibrillin-1 deposition proximal to the DEJ ([1]; six volunteers) | effect on MMP-1 expression in epidermal keratinocytes ([2]; result in words) | MMP-1 staining Mean ([2]; positive epidermal keratinocytes per high powered field, p > 0.05) | effect on RARα expression in epidermal keratinocytes ([3]; result in words) | RARα staining Mean [3, 6] | effect on expression of epidermal HSP72 ([4]; result in words) | HSP72 staining Mean [4, 6] | Erythema at the site of application [5] | levels of HSP70 mRNA relative to heat treatment alone (HSP70 mRNA) [fold]
1 | CC1=C(/C=C/C(C)=C/C=C/C(C)=C/C(=O)O)C(C)(C)CCC1 [All-trans RA, all-trans retinoic acid] | 1.8241 | 3/6 | reduced MMP-1 expression in epidermal keratinocytes, although this did not reach significance | 5.3333 | significantly reduced RARα expression in epidermal keratinocytes | 6.0463 | significantly increased the expression of epidermal HSP72 | 77.03** | marked erythema | 
2 | CC(=O)Oc1ccccc1C(=O)O [aspirin, acetylsalicyclic acid] |  |  |  |  |  |  |  |  |  | 3 to 4
